Assay results as given in ChEMBL document CHEMBL5108046, “Discovery of Novel Pyrazole-Based KDM5B Inhibitor TK-129 and Its Protective Effects on Myocardial Remodeling and Fibrosis” (J Med Chem, 2022).
Activity calls are given as the source filed them. The calls are words filed in the database; no cut-off is given here.

What was measured:
[1] = Acute toxicity in C57BL/6 mouse assessed as effect on spleen at 2 g/Kg by hematoxylin and eosin staining based histopathological analysis; format: tissue-based; settings: in vivo, 2000 mg/kg
[2] = tested on: Fibroblast of cardiac tissue; assay: Reversal of Ang II-induced increase in collagen I level in neonatal rat cardiac fibroblasts by Western blot analysis; format: functional, cell-based
[3] = Half life in Sprague-Dawley rat at 2 mg/kg, iv measured upto 24 hrs; format: ADME, organism-based; settings: in vivo
[4] = Oral bioavailability in Sprague-Dawley rat at 10 mg/kg measured upto 24 hrs; format: ADME, organism-based; settings: in vivo
[5] = target: T1, Lysine-specific demethylase 5B (Homo sapiens, UniProt Q9UGL1); assay: Inhibition of KDM5B (unknown origin) at 10 uM incubated for 30 mins by HRTF assay relative to control
T1 sequence (Q9UGL1 whole entry): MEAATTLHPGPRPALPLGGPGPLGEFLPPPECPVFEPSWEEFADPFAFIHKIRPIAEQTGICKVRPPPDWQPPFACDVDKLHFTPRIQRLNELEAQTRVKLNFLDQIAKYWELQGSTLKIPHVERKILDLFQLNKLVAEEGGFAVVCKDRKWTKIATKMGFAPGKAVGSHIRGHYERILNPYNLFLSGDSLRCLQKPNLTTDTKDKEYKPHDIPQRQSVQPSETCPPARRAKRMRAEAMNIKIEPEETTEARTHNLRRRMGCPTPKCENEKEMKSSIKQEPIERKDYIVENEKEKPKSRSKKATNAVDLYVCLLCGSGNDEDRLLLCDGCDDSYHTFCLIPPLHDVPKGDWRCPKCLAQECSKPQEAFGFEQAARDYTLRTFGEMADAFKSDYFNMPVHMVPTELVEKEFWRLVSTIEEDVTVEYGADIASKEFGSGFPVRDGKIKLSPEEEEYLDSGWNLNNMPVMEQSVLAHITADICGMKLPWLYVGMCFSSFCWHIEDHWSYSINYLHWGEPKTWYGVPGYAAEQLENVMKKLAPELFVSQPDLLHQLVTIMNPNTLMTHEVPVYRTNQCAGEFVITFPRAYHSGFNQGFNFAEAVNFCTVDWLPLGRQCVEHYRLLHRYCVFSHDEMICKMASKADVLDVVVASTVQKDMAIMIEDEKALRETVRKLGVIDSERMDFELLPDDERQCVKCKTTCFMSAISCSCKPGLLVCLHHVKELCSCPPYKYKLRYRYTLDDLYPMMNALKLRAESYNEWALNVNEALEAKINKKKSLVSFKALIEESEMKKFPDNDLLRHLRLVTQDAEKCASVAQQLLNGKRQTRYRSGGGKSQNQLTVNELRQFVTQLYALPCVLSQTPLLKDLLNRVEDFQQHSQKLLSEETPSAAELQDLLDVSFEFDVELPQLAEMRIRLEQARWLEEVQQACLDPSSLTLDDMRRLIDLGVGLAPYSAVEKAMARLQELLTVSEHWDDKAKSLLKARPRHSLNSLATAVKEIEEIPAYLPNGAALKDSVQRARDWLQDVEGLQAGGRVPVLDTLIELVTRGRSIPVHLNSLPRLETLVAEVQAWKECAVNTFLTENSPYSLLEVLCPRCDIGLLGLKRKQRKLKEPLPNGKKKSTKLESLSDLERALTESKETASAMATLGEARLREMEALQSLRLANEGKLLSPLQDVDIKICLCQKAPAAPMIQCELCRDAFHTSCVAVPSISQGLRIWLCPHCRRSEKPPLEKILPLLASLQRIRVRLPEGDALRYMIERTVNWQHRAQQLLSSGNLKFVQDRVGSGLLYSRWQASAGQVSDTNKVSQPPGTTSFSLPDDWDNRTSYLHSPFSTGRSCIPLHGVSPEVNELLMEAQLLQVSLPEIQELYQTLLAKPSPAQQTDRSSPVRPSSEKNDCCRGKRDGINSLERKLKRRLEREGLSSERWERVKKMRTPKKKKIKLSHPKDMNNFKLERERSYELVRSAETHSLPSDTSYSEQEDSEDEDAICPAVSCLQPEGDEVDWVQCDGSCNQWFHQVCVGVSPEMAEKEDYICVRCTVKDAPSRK

[6] = Cmax in Sprague-Dawley rat at 2 mg/kg, iv measured upto 24 hrs; format: ADME, organism-based; parameters: time < 24 hrs, dose 2 mg/kg, route iv; settings: in vivo
Mus musculus [7] = assay: Anti-myocardial remodeling function in isoproterenol-induced C57BL/6 mouse model assessed as decrease in heart weight to […] ratio at 50 mg/kg by one-time gavage for 21 days; format: functional; settings: time 21 day
[8] = Clearance in Sprague-Dawley rat at 2 mg/kg, iv measured upto 24 hrs; format: ADME, organism-based; settings: in vivo
[9] = target: T1, Lysine-specific demethylase 5B; assay: Inhibition of KDM5B (unknown origin) incubated for 30 mins by HRTF assay
[10] = Acute toxicity in C57BL/6 mouse assessed as effect on lung at 2 g/Kg by hematoxylin and eosin staining based histopathological analysis; format: tissue-based; settings: in vivo, 2000 mg/kg
[11] = Tmax in Sprague-Dawley rat at 10 mg/kg, po measured upto 24 hrs; format: ADME, organism-based; settings: in vivo
Mus musculus [12] = assay: Anti-myocardial remodeling function in isoproterenol-induced C57BL/6 mouse model assessed as decrease in cardiac hypertrophy ANP protein at 50 mg/kg by one-time gavage for 21 days relative to control; format: functional; parameters: scale not given: the % may be the effect or the level left; settings: time 21 day
[13] = AUC in Sprague-Dawley rat at 10 mg/kg, po measured upto 24 hrs; format: ADME, organism-based; parameters: dose 10 mg/kg, time < 24 hrs, route po; settings: in vivo
Mus musculus [14] = assay: Anti-myocardial remodeling function in isoproterenol-induced C57BL/6 mouse model assessed as decrease in cardiac hypertrophy ANP protein at 20 mg/kg by one-time gavage for 21 days relative to control; format: functional; parameters: scale not given: the % may be the effect or the level left; settings: time 21 day
Mus musculus [15] = assay: Anti-myocardial remodeling function in isoproterenol-induced C57BL/6 mouse model assessed as decrease in heart weight to […] ratio at 20 mg/kg by one-time gavage for 21 days; format: functional; settings: time 21 day
[16] = tested on: Fibroblast of cardiac tissue; assay: Reversal of Ang II-induced decrease in H3K4me3 level in neonatal rat cardiac fibroblasts by Western blot analysis; format: functional, cell-based
[17] = tested on: Fibroblast of cardiac tissue; assay: Reversal of Ang II-induced increase in […] level in neonatal rat cardiac fibroblasts by Western blot analysis; format: functional, cell-based
[18] = Acute toxicity in C57BL/6 mouse assessed as effect on kidney at 2 g/Kg by hematoxylin and eosin staining based histopathological analysis; format: tissue-based; settings: in vivo, 2000 mg/kg
[19] = Acute toxicity in C57BL/6 mouse assessed as effect on liver at 2 g/Kg by hematoxylin and eosin staining based histopathological analysis; format: tissue-based; settings: in vivo, 2000 mg/kg
[20] = Cytotoxicity against neonatal rat cardiac fibroblast assessed as cell survival rate at 10 uM measured after 48 hrs by MTT assay relative to control; format: toxicity, cell-based, Fibroblast of cardiac tissue; settings: neonatal rat cardiac fibroblasts, read-out: Activity
[21] = target: Lysine-specific demethylase 5A (Homo sapiens, UniProt P29375); assay: Inhibition of KDM5A (unknown origin) incubated for 30 mins by HRTF assay
Chain of Lysine-specific demethylase 5A (P29375 whole entry): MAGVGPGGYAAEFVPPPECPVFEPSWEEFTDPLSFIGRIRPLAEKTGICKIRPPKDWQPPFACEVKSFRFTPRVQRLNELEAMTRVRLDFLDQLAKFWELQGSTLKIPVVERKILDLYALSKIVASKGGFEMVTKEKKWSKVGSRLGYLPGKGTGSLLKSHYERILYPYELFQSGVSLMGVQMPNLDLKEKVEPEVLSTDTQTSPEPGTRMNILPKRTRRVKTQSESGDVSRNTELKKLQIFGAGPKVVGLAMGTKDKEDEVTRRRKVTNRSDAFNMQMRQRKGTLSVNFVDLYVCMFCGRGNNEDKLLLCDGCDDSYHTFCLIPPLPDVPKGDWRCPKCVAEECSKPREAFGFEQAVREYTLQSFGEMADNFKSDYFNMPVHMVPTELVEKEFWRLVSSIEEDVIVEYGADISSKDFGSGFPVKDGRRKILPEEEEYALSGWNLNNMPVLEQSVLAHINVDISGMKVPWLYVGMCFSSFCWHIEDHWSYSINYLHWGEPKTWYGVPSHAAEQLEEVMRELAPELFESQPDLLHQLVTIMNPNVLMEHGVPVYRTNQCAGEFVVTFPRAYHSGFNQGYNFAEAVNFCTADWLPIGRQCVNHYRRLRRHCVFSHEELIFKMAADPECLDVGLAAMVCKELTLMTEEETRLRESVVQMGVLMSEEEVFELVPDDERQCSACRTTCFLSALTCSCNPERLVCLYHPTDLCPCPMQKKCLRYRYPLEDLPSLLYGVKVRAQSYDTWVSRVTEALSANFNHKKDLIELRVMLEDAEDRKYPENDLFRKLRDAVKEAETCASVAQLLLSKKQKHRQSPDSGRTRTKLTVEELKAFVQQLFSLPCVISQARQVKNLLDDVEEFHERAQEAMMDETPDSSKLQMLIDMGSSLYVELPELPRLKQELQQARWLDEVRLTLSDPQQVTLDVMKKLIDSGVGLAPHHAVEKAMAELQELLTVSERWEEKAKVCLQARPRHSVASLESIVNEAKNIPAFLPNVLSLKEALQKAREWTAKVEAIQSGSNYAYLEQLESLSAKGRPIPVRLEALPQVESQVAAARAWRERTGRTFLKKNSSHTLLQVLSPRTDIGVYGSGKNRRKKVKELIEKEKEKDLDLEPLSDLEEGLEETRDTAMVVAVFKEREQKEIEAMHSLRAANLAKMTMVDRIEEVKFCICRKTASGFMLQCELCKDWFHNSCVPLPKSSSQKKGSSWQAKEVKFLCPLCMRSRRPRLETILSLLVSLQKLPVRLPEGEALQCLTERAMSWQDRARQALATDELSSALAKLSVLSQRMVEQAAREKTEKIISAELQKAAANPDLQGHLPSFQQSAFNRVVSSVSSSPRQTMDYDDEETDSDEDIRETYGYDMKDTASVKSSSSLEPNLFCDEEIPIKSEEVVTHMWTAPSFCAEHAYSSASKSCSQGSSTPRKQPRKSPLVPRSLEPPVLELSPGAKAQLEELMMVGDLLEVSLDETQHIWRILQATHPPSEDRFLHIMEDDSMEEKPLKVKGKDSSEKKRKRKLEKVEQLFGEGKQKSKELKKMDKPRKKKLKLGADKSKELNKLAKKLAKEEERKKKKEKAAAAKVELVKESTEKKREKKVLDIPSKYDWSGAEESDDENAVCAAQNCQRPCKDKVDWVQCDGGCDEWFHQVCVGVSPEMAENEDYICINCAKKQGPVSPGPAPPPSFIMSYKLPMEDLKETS

Mus musculus [22] = assay: Anti-myocardial remodeling function in isoproterenol-induced C57BL/6 mouse model assessed as decrease in cardiac hypertrophy BNP protein at 20 mg/kg by one-time gavage for 21 days relative to control; format: functional; parameters: scale not given: the % may be the effect or the level left; settings: time 21 day
Mus musculus [23] = assay: Anti-myocardial remodeling function in isoproterenol-induced C57BL/6 mouse model assessed as decrease in heart weight to body weight ratio at 20 mg/kg by one-time gavage for 21 days; format: functional; settings: time 21 day
[24] = Clearance in Sprague-Dawley rat at 10 mg/kg, po measured upto 24 hrs; format: ADME, organism-based; settings: in vivo
[25] = tested on: Fibroblast of cardiac tissue; assay: Antimigratory activity in neonatal rat cardiac fibroblasts assessed as fold decrease in Ang II-induced migration measured after 48 hrs by scratch test; format: functional
[26] = Acute toxicity in C57BL/6 mouse assessed as effect on heart at 2 g/Kg by hematoxylin and eosin staining based histopathological analysis; format: tissue-based; settings: in vivo, 2000 mg/kg
[27] = tested on: Fibroblast of cardiac tissue; assay: Reversal of Ang II-induced decrease in H3K4me3 level in neonatal rat cardiac fibroblasts by immunofluorescence staining assay; format: functional, cell-based
[28] = Volume of distribution at steady state in Sprague-Dawley rat at 10 mg/kg, po measured upto 24 hrs; format: ADME, organism-based; settings: in vivo
Mus musculus [29] = assay: Anti-myocardial remodeling function in isoproterenol-induced C57BL/6 mouse heart injury model assessed as reversal of pathological damage at 20 to 50 mg/kg by one-time gavage for 21 days by Masson staining and Sirius Red staining based analysis; format: functional, organism-based; settings: dose 20-50 mg/kg, time 21.0 day
Mus musculus [30] = assay: Anti-myocardial remodeling function in isoproterenol-induced C57BL/6 mouse model assessed as increase in ejection fraction at 50 mg/kg by one-time gavage for 21 days; format: functional; settings: time 21 day
Mus musculus [31] = assay: Anti-myocardial remodeling function in isoproterenol-induced C57BL/6 mouse model assessed as increase in shortening fraction at 20 mg/kg by one-time gavage for 21 days; format: functional; settings: time 21 day
[32] = Half life in Sprague-Dawley rat at 10 mg/kg, po measured upto 24 hrs; format: ADME, organism-based; settings: in vivo
[33] = Cmax in Sprague-Dawley rat at 10 mg/kg, po measured upto 24 hrs; format: ADME, organism-based; parameters: dose 10 mg/kg, time < 24 hrs, route po; settings: in vivo
[34] = Volume of distribution at steady state in Sprague-Dawley rat at 2 mg/kg, iv measured upto 24 hrs; format: ADME, organism-based; settings: in vivo, read-out: Vdss
Mus musculus [35] = assay: Anti-myocardial remodeling function in isoproterenol-induced C57BL/6 mouse model assessed as decrease in heart weight to body weight ratio at 50 mg/kg by one-time gavage for 21 days; format: functional; settings: time 21 day
Mus musculus [36] = assay: Anti-myocardial remodeling function in isoproterenol-induced C57BL/6 mouse model assessed as increase in shortening fraction at 50 mg/kg by one-time gavage for 21 days; format: functional; settings: time 21 day
[37] = Cytotoxicity against neonatal rat Cardiomyocytes assessed as cell survival rate at 10 uM measured after 48 hrs by MTT assay; format: toxicity, cell-based, Cardiac muscle cell; settings: read-out: Activity
[38] = tested on: Fibroblast of cardiac tissue; assay: Reversal of Ang II-induced proliferation in neonatal rat cardiac fibroblasts measured after 48 hrs by MTT assay; format: functional, cell-based
Mus musculus [39] = assay: Anti-myocardial remodeling function in isoproterenol-induced C57BL/6 mouse model assessed as increase in ejection fraction at 20 mg/kg by one-time gavage for 21 days; format: functional; settings: time 21 day
[40] = Acute toxicity in C57BL/6 mouse assessed as body weight at 2 g/Kg by one-time gavage measured after 2 weeks; settings: in vivo, po, 2000 mg/kg, 336 h
[41] = Acute toxicity in C57BL/6 mouse assessed as survival at 2 g/Kg by one-time gavage measured after 2 weeks; settings: in vivo, po, 2000 mg/kg, 336 h
[42] = AUC in Sprague-Dawley rat at 2 mg/kg, iv measured upto 24 hrs; format: ADME, organism-based; parameters: dose 2 mg/kg, time < 24 hrs, route iv; settings: in vivo
[43] = tested on: Fibroblast of cardiac tissue; assay: Antimigratory activity in neonatal rat cardiac fibroblasts assessed as fold decrease in Ang II-induced migration measured after 48 hrs by transwell test (reference value: 1.8 fold); format: functional
[44] = tested on: Fibroblast of cardiac tissue; assay: Reversal of Ang II-induced increase in alpha-SMA level in neonatal rat cardiac fibroblasts by Western blot analysis; format: functional, cell-based
[45] = target: Lysine-specific demethylase 5C (Homo sapiens, UniProt P41229); assay: Inhibition of KDM5C (unknown origin) incubated for 30 mins by HRTF assay
Chain of Lysine-specific demethylase 5C (P41229 whole entry): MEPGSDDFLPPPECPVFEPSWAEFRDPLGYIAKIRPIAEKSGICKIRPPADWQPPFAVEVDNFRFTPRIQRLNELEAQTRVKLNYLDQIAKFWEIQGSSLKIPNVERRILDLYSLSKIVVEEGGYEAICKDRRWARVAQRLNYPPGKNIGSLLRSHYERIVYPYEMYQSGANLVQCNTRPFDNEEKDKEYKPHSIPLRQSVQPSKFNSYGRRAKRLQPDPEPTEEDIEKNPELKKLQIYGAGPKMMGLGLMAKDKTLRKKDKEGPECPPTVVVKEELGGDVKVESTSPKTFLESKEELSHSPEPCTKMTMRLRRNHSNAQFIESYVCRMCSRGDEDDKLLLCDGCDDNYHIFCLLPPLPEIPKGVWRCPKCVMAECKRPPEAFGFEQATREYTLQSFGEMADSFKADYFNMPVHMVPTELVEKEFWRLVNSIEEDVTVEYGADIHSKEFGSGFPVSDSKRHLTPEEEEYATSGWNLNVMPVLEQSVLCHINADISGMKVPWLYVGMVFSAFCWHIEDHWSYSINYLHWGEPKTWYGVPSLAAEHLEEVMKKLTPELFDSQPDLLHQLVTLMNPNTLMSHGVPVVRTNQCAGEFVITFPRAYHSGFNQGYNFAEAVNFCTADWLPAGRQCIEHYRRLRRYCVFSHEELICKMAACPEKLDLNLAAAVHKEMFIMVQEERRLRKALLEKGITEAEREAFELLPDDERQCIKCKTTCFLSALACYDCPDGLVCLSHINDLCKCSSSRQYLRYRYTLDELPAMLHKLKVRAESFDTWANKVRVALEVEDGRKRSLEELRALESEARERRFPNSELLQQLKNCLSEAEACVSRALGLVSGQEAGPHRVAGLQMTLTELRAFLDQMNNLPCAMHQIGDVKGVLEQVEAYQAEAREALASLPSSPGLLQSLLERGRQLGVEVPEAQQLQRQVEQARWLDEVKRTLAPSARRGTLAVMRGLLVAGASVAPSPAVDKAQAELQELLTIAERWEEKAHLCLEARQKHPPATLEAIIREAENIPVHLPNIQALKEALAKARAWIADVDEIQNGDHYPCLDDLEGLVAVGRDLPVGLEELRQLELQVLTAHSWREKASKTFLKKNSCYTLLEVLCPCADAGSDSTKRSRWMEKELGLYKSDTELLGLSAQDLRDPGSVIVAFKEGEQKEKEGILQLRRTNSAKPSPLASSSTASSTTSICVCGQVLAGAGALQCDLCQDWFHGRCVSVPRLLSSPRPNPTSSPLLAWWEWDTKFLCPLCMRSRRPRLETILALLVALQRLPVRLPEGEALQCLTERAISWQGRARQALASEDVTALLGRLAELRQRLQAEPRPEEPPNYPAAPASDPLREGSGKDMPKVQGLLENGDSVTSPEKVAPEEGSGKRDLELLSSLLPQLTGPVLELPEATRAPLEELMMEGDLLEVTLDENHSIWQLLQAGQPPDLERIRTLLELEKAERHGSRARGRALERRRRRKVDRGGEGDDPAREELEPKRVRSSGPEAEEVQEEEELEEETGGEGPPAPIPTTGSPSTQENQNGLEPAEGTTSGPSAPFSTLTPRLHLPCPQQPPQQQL

Mus musculus [46] = assay: Anti-myocardial remodeling function in isoproterenol-induced C57BL/6 mouse model assessed as decrease in cardiac hypertrophy BNP protein at 50 mg/kg by one-time gavage for 21 days relative to control; format: functional; parameters: scale not given: the % may be the effect or the level left; settings: time 21 day

## CC(C)c1cc(C(=O)N2CC[C@@H](NC(=O)NC3CC3)C2)n[nH]1
[1]
  Activity: Non-Toxic
[2]
  Activity: Active
[3]
  half-life: 24 min
[4]
  bioavailability: 42.4%
[5]
  inhibition: 100%
[6]
  Cmax: 1230 ng/mL
Mus musculus [7]
  Ratio: 0.89
[8]
  clearance: 70 mL/min/kg
[9]
  IC50: 44 nM
[10]
  Activity: Non-Toxic
[11]
  Tmax: 24 min
Mus musculus [12]
  Activity: 71%
[13]
  AUC at 24 h: 1040 ng·h/mL
Mus musculus [14]
  Activity: 85%
Mus musculus [15]
  Ratio: 0.93
[16]
  Activity: Active
[17]
  Activity: Active
[18]
  Activity: Non-Toxic
[19]
  Activity: Non-Toxic
[20]
  viability at 48 h, 10 µM: 90%
[21]
  IC50: 79 nM
Mus musculus [22]
  Activity: 75%
Mus musculus [23]
  Ratio: 0.93
[24]
  CL/F: 165 mL/min/kg
[25]
  Ratio: 0.77
[26]
  Activity: Non-Toxic
[27]
  Activity: Active
[28]
  Vdss: 33.4 L/kg
Mus musculus [29]
  Activity: Active
Mus musculus [30]
  Activity: 83%
Mus musculus [31]
  Activity: 44%
[32]
  half-life: 144 min
[33]
  Cmax: 710 ng/mL
[34]
  Vd: 2.7 L/kg
Mus musculus [35]
  Ratio: 0.89
Mus musculus [36]
  Activity: 50%
[37]
  viability at 48 h, 10 µM: 90%
[38]
  Activity: Active
Mus musculus [39]
  Activity: 77%
[40]
  Activity: Non-Toxic
[41]
  Activity: Non-Toxic
[42]
  AUC at 24 h: 480 ng·h/mL
[43]
  Ratio: 0.6
[44]
  Activity: Active
[45]
  IC50: 353 nM
Mus musculus [46]
  Activity: 54%
